Like-named read-outs stand apart in the source and are kept apart here.
Assays:
[1] = system: non-transformed human breast epithelial line MCF10A; assay: MTT proliferation assay, MCF10A; type: cell-based; conditions: MCF-10A, 48 h
Method: M1 inhibition of proliferation of MCF7, T47D and MDA-MB-231 cell lines was studied. Cells (n=2000/well) were seeded in 96 well plates with drug or vehicle (DMSO) on D1 and after 48 h the cell number was determined by MTT assay. Each assay was performed with 8 measurements for each data point (See FIG. 1, wherein graph A corresponds to MCF7, graph B corresponds to T47D, and graph C corresponds to MDA-MB-231).
M1 inhibition of proliferation of MCF7 (ER+), T47D (ER+), MDA-MB-231 (triple negative), SKBR3 (ER−/Her2+), and the non-transformed mammary line MCF10A were studied. Cells (n=2000/well) were seeded in 96 well plates with drug or vehicle (DMSO) on D1 and after 48 h the cell number was determined by MTT assay.

[2] = system: T47D (ER+); assay: MTT proliferation assay, T47D; type: cell-based; conditions: Homo sapiens
Method: (§1) Cells (n=2000/well) were seeded in 96 well plates with drug or vehicle (DMSO) on D1 and after 48 h the cell number was determined by MTT assay.

[3] = system: MCF7 (ER+); assay: MTT proliferation assay, MCF7; type: cell-based; conditions: Homo sapiens
Method: as §1

[4] = system: T47D (ER+); assay: Annexin V-FITC/PI apoptosis flow cytometry, T47D; type: cell-based
Method: (§2) Induction of apoptosis was studied in a MCF7 breast cancer cell line. Apoptotic cells were detected using an Annexin V-FITC/PI apoptosis detection kit (Oncagene, Boston, Mass.). After plating at 5×10^5 in a 100-mm plate, the cells were grown for 48 hours in complete medium in presence of M1, ritonavir, or vehicle (DMSO). The culture and drug exposure conditions for the apoptosis assays were done across a range of 5 to 60 μmol/L M1 and ritonavir. Cells were harvested by trypsin treatment, washed with complete medium to neutralize the trypsin, and stained with PI and Annexin V-FITC. A total of 1×10^4 events were analyzed per assay by FACScan analysis using CellQuest software (Becton Dickinson). Replicate assays were done to confirm the results.
(§3) A similar study was performed using T47D (ER+), MDA-MB-231 (triple negative) and SKBR3 (ER−/Her2+) cell lines were performed as above.

[5] = system: MDA-MB-231 (triple negative); assay: Annexin V-FITC/PI apoptosis flow cytometry, MDA-MB-231; type: cell-based
Method: as §2, §3

[6] = system: T47D; assay: Western blot protein depletion, T47D (Example 4); type: cell-based
Method: (§4) Breast cancer cell lines MDA-MB-231, T47D and SKBR3 were used to study depletion of Hsp90 by M1 and ritonavir. Cells were incubated for 48 hours with 1) ritonavir (R) at its IC50 (20 μM for T47D and 40 μM for MDA-MB-231); 2) M1 at ritonavir's IC50; or DMSO (control). Cell extracts were made according to the method of Srirangam et al., Clin Cancer Res. 2006 Mar. 15; 12(6):1883-96. Briefly, nearly confluent cell monolayers were treated with drug or vehicle (DMSO) for 24 or 48 h. Cells were washed with PBS on ice and scraped in a RIPA buffer containing protease inhibitors including MG-132 and phosphatase inhibitors. The cell lysate protein content was determined by μBCA and equal amounts of protein were loaded per lane. Gel electrophoresis by SDS PAGE was performed with equal protein loading per lane (usually 30 μg) and the separated proteins were transferred to 0.45 μm nitrocellulose filters. The transfer was verified by Ponceau stain of the nitrocellulose filters. The filters were probed by chemiluminescent blotting and then exposed to X-ray film. The signal from the protein of interest was normalized to the GAPDH signal. Student's t-test was used to determine the significance of differences.

[7] = system: MDA-MB-231; assay: Western blot protein depletion, MDA-MB-231 (Example 4); type: cell-based
Method: as §4

[8] = system: MDA-MB-231 xenograft; assay: Murine breast cancer xenograft; type: in vivo, female nude mice (nu-/nu-)
Method: Six-8 weeks old female nude mice (nu^−/nu^−) (Charles River Laboratories International, Inc., MA) were injected into a right mammary fat pad with 1×10^6 log-phase MDA-MB-231. Mice were monitored bi-weekly for weight and tumor growth. When tumors reached a volume of approximately 30-40 mm^3 (calculated according to the formula: volume (mm^3)=(length)(width)^2/2), mice were randomized into three groups (each group n=10). One group of mice was injected daily i.p. with ritonavir (20 mg/Kg in 100 μl of ethanol-Tween 80), the second with M1 (20 mg/Kg in 100 μl of ethanol-Tween 80), and the third with vehicle only (100 μl of ethanol-Tween 80). […] Mice were weighted and their tumors were measured twice a week for the entire duration of the treatment (42 days).
One hour after the last drug/vehicle injection plasma, tumors, lungs, liver, tongue, and skin were collected from each mouse. Plasma was stored at −80° C.; half of the tissues were treated to prepare paraffin blocks, and half were frozen in liquid nitrogen and stored at −80° C.

[9] = system: T47D (ER+ line); assay: Western blot densitometry, T47D (Example 17); type: cell-based; set-up: % Reduction, Total Akt / % Reduction, Phospho Akt / % Reduction, ER-α: concentration or dose not given beside the values; conditions: 24 or 48 hours
Method: An ER^+ line, T47D, was treated with M1 or ritonavir for 24 or 48 hours. The cells were grown to confluence and treated with drug or DMSO vehicle. The cells were scraped on ice into RIPA buffer containing protease inhibitors including MG-132 and phosphatase inhibitors as published (see Srirangam et al. Clincal Ca Research 2006). The RIPA lysate was subjected to electrophoresis, blotted and probed with the appropriate antibodies.

Row | Compound | IC50 ([1]; Example 1, MTT after 48 h) [µM] | IC50 ([1]; Example 6, MTT after 48 h) [µM] | fraction of apoptotic cells [4] [%] | fraction of apoptotic cells [5] [%] | G1/S regulatory protein Cyclin D1 ([6]; P<0.05) | G1/S regulatory protein Cyclin D1 ([7]; P<0.05) | % Reduction, CDK2 [9] [%] | % Reduction, CDK4 [9] [%] | % Reduction, CDK6 [9] [%] | % Reduction, Cyclin D1 [9] [%] | % Reduction, ER-α [9] [%] | % Reduction, Hsp90 [9] [%] | % Reduction, Phospho Akt [9] [%] | % Reduction, Total Akt [9] [%] | further results
1 | CC(C)c1nc(CN(C)C(=O)N[C@H](C(=O)N[C@@H](Cc2ccccc2)C[C@H](O)[C@H](Cc2ccccc2)NC(=O)OCc2cncs2)C(C)C)cs1 [ritonavir] | 35 | 31 | 13 | 20 | reduced | reduced | 49.91 | 23.99 | 11.64 | 42.87 | 33.24 | 48.3 | 9.98 | 5.04 | IC50 ([2]; 48 h, read-out: IC50, proliferation): 23 µM; IC50 ([2]; as quoted in Example 4, read-out: IC50): 20 µM; IC50 ([3]; MCF7, 48 h, read-out: IC50, proliferation): 28 µM; IC50 ([3]; MCF7, as quoted in Example 2, read-out: IC50): 30 µM; effect on MDA-MB-231 xenograft ([8]; at its MTD (40 mg/Kg)): inhibits; effect on MDA-MB-231 xenograft ([8]; half its MTD (20 mg/Kg)): ineffective
2 | CC(C)c1nc(CN(C)C(=O)NC(C(=O)NC(Cc2ccccc2)CC(O)C(N)Cc2ccccc2)C(C)C)cs1 (centres unmarked) [M1, desthiazolyl ritonavir] | 50 | 45 | 20 | 40 | reduced | reduced | 51.02 | 2.23 | 21.05 | 45.64 | 56.41 | 82.70 | 56.36 | 56.57 | IC50 ([2]; Example 6, MTT after 48 h, read-out: IC50, proliferation): 10 µM; IC50 ([3]; MCF7, Example 6, MTT after 48 h, read-out: IC50, proliferation): 15 µM; reducing Hsp90 levels ([6]; 48 hours, at ritonavir's IC50 (20 μM)): more potent than ritonavir; reducing ER alpha ([6]; versus ritonavir, P<0.05): more potent; reducing total Akt, phospho-Akt, GSK3beta, c-src, and survivin ([6]; versus ritonavir, P<0.05): more potent; reducing Hsp90 levels ([7]; 48 hours, at ritonavir's IC50 (40 μM)): more potent than ritonavir; reducing total Akt, phospho-Akt, GSK3beta, c-src, and survivin ([7]; versus ritonavir, P<0.05): more potent; tumor growth compared to mice treated with only the vehicle ([8]; 20 mg/Kg daily i.p., 42 days, FIG. 5A): delayed tumor growth; tumor growth compared to ritonavir ([8]; 20 mg/Kg daily i.p., 42 days, FIG. 5B): statistically significant delay in tumor growth; reduction of the average tumor size ([8]; at MTD (20 mg/Kg), 42 days of follow-up, P<0.05): 2 -fold
